Source: US8063065B2, “Azaindazole compounds as CCR1 receptor antagonists” (Boehringer Ingelheim International GmbH, priority 2008, dated 2011)

The compounds below were run against T1, CCR1 (Homo sapiens, UniProt P32246) (assay: Method B: calcium flux in CCR1 transfected cells (Calcium 4 dye, […] FDSS6000), block of the CCR1/MIP-1α interaction). Settings: Method B: Calcium 4 dye, MIP-1alpha at EC80.
T1 sequence (P32246 1-355): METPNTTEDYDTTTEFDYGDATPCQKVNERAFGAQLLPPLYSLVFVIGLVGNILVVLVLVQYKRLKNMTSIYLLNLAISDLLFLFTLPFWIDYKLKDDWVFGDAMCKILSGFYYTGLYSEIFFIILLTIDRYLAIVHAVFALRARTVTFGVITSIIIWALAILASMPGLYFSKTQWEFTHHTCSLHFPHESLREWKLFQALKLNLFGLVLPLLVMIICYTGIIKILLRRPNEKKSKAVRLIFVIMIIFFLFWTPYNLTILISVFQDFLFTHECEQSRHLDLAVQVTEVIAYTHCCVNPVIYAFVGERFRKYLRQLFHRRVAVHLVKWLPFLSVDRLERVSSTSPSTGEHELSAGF
Assay type: cell-based
How it was run: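 Non-adherent cells stably expressing CCR1 and G-alpha-16 were loaded with Calcium 4 dye plus probenecid for 1 h at room temperature. Compounds (top 3,000 nM, 4-fold, 10 doses, 1% DMSO) in HBSS/20 mM HEPES pH 7.4 were incubated 30 min at 37 C, then 30 min at room temperature. MIP-1α at EC80 was added and calcium flux read on FDSS6000.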

For `CC[C@H](NC(=O)c1cncc2c1cnn2-c1ccc(F)cc1)c1cn[nH]c1` [1-(4-Fluorophenyl)-1H-pyrazolo[3,4-c]pyridine-4-carboxylic acid [(S)-1-(1H-pyrazol-4-yl)-propyl]-amide], which IC50 is on record?
Its IC50 is 36 nM.

`CCC(NC(=O)c1cncc2c1cnn2-c1ccc(F)cc1)C1CCN(C(C)=O)CC1` (centres unmarked) [1-(4-Fluorophenyl)-1H-pyrazolo[3,4-c]pyridine-4-carboxylic acid [1-(1-acetyl-piperidin-4-yl)-propyl]-amide] was tested. Which IC50 did it give?
Its IC50 is 10 nM.

With `C[C@H](NC(=O)c1cncc2c1cnn2-c1ccc(F)cc1)c1cc(S(C)(=O)=O)[nH]c(=O)c1` [1-(4-Fluorophenyl)-1H-pyrazolo[3,4-c]pyridine-4-carboxylic acid [(S)-1-(6-methanesulfonyl-2-oxo-1,2-dihydropyridin-4-yl)-ethyl]-amide] as the compound, how does the IC50 read?
The IC50 was 3 nM.

With `CC[C@H](NC(=O)c1cncc2c1cnn2-c1ccc(F)cc1)c1ccnc(N(C)CCO)c1` [1-(4-Fluorophenyl)-1H-pyrazolo[3,4-c]pyridine-4-carboxylic acid ((S)-1-{2-[(2-hydroxy-ethyl)-methyl-amino]-pyridin-4-yl}-propyl)-amide] as the compound, how does the IC50 read?
The IC50 was 2 nM.

For `CC[C@H](NC(=O)c1cncc2c1cnn2-c1ccc(F)cc1)c1ccnc(N(C)C(C)=O)c1` [1-(4-Fluorophenyl)-1H-pyrazolo[3,4-c]pyridine-4-carboxylic acid {(S)-1-[2-(acetyl-methyl-amino)-pyridin-4-yl]-propyl}-amide], which IC50 is on record?
The IC50 was 5 nM.

With `CC[C@H](NC(=O)c1cncc2c1cnn2-c1ccc(F)cc1)c1csc(S(C)(=O)=O)c1` [1-(4-Fluorophenyl)-1H-pyrazolo[3,4-c]pyridine-4-carboxylic acid [(S)-1-(5-methanesulfonyl-thiophen-3-yl)-propyl]-amide] as the compound, how does the IC50 read?
Its IC50 is 0.3 nM.

For `CCC[C@H](NC(=O)c1cncc2c1cnn2-c1ccc(F)cc1)c1ccnc(S(=O)(=O)CC)c1` [1-(4-Fluorophenyl)-1H-pyrazolo[3,4-c]pyridine-4-carboxylic acid [(S)-1-(2-ethanesulfonyl-pyridin-4-yl)-butyl]-amide], which IC50 is on record?
Its IC50 is 0.1 nM.

`O=C(N[C@@H](CO)c1ccnc(Br)c1)c1cncc2c1cnn2-c1ccc(F)cc1` [1-(4-Fluorophenyl)-1H-pyrazolo[3,4-c]pyridine-4-carboxylic acid [(R)-1-(2-bromo-pyridin-4-yl)-2-hydroxy-ethyl]-amide] was tested. Which IC50 did it give?
Its IC50 is 2 nM.

For `CC[C@H](NC(=O)c1cncc2c1cnn2-c1ccc(F)cc1)c1cc(N(C)C)nc(S(C)(=O)=O)c1` [1-(4-Fluorophenyl)-1H-pyrazolo[3,4-c]pyridine-4-carboxylic acid [(S)-1-(2-dimethylamino-6-methanesulfonyl-pyridin-4-yl)-propyl]-amide], which IC50 is on record?
The IC50 was 0.2 nM.

How did the IC50 turn out when `CC[C@H](NC(=O)c1cncc2c1cnn2-c1ccc(F)cc1)c1ccnc(C#N)c1` [1-(4-Fluorophenyl)-1H-pyrazolo[3,4-c]pyridine-4-carboxylic acid [(S)-1-(2-cyano-pyridin-4-yl)-propyl]-amide] was run?
The IC50 was 0.3 nM.

With `CC[C@H](NC(=O)c1cncc2c1cnn2-c1ccc(F)cc1)c1nc(C(N)=O)cs1` [1-(4-Fluorophenyl)-1H-pyrazolo[3,4-c]pyridine-4-carboxylic acid [(S)-1-(4-carbamoyl-thiazol-2-yl)-propyl]-amide] as the compound, how does the IC50 read?
The IC50 was 8 nM.

With `CCC(NC(=O)c1cncc2c1cnn2-c1ccc(F)cc1)C1CCN(C(=O)OC(C)(C)C)CC1` (centres unmarked) [4-(1-{[1-(4-Fluorophenyl)-1H-pyrazolo[3,4-c]pyridine-4-carbonyl]-amino}-propyl)-piperidine-1-carboxylic acid tert-butyl ester] as the compound, how does the IC50 read?
The IC50 was 4 nM.

How did the IC50 turn out when `CC[C@@H](NC(=O)c1cncc2c1cnn2-c1ccc(F)cc1)c1ccn(S(=O)(=O)c2ccc(C)cc2)c1` [1-(4-Fluorophenyl)-1H-pyrazolo[3,4-c]pyridine-4-carboxylic acid {(R)-1-[1-(toluene-4-sulfonyl)-1H-pyrrol-3-yl]-propyl}-amide] was run?
Its IC50 is 23 nM.

With `CC[C@H](NC(=O)c1cncc2c1cnn2-c1ccc(F)cc1)c1cc(Cl)nc(S(C)(=O)=O)c1` [1-(4-Fluorophenyl)-1H-pyrazolo[3,4-c]pyridine-4-carboxylic acid [(S)-1-(2-chloro-6-methanesulfonyl-pyridin-4-yl)-propyl]-amide] as the compound, how does the IC50 read?
The IC50 was 0.3 nM.

Which IC50 does the source give for `CC[C@@H](NC(=O)c1cncc2c1cnn2-c1ccc(F)cc1)c1cc(S(C)(=O)=O)cn1S(=O)(=O)c1ccc(C)cc1` [1-(4-Fluorophenyl)-1H-pyrazolo[3,4-c]pyridine-4-carboxylic acid {(R)-1-[4-methanesulfonyl-1-(toluene-4-sulfonyl)-1H-pyrrol-2-yl]-propyl}-amide] here?
The IC50 was 16 nM.

`C[C@H](NC(=O)c1cncc2c1cnn2-c1ccc(F)cc1)c1cccc(S(C)(=O)=O)c1` [1-(4-Fluorophenyl)-1H-pyrazolo[3,4-c]pyridine-4-carboxylic acid [(S)-1-(3-methanesulfonyl-phenyl)-ethyl]-amide] was tested. Which IC50 did it give?
Its IC50 is 1 nM.

For `CCC[C@@H](NC(=O)c1cncc2c1cnn2-c1ccc(F)cc1)c1ccc(OC)c(Br)c1` [1-(4-Fluorophenyl)-1H-pyrazolo[3,4-c]pyridine-4-carboxylic acid [(R)-1-(3-bromo-4-methoxy-phenyl)-butyl]-amide], which IC50 is on record?
The IC50 was 0.3 nM.

`CS(=O)(=O)c1nc(CNC(=O)c2cncc3c2cnn3-c2ccc(F)cc2)cs1` [1-(4-Fluorophenyl)-1H-pyrazolo[3,4-c]pyridine-4-carboxylic acid (2-methanesulfonyl-thiazol-4-ylmethyl)-amide] was tested. Which IC50 did it give?
The IC50 was 29 nM.

With `CC[C@H](NC(=O)c1cncc2c1cnn2-c1ccc(F)cc1)c1coc(S(C)(=O)=O)n1` [1-(4-Fluorophenyl)-1H-pyrazolo[3,4-c]pyridine-4-carboxylic acid [(S)-1-(2-methanesulfonyl-oxazol-4-yl)-propyl]-amide] as the compound, how does the IC50 read?
The IC50 was 4 nM.

`CCC(CC)(NC(=O)c1cncc2c1cnn2-c1ccc(F)cc1)c1ccnc(Br)c1` [1-(4-Fluorophenyl)-1H-pyrazolo[3,4-c]pyridine-4-carboxylic acid [1-(2-bromo-pyridin-4-yl)-1-ethyl-propyl]-amide] was tested. Which IC50 did it give?
Its IC50 is 29 nM.

For `CC[C@H](NC(=O)c1cncc2c1cnn2-c1ccc(F)cc1)c1ccnc(N2CCC(F)(F)CC2)c1` [1-(4-Fluorophenyl)-1H-pyrazolo[3,4-c]pyridine-4-carboxylic acid [(S)-1-(4,4-difluoro-3,4,5,6-tetrahydro-2H-[1,2′]bipyridinyl-4′-yl)-propyl]-amide], which IC50 is on record?
The IC50 was 3 nM.

`CCC(NC(=O)c1cncc2c1cnn2-c1ccc(F)cc1)C1CCN(C(N)=O)CC1` (centres unmarked) [1-(4-Fluorophenyl)-1H-pyrazolo[3,4-c]pyridine-4-carboxylic acid [1-(1-carbamoyl-piperidin-4-yl)-propyl]-amide] was tested. Which IC50 did it give?
Its IC50 is 16 nM.

With `CC[C@H](NC(=O)c1cncc2c1cnn2-c1ccc(F)cc1)c1ccnc(C(C)(C)O)c1` [1-(4-Fluorophenyl)-1H-pyrazolo[3,4-c]pyridine-4-carboxylic acid {(S)-1-[2-(1-hydroxy-1-methyl-ethyl)-pyridin-4-yl]-propyl}-amide] as the compound, how does the IC50 read?
Its IC50 is 0.5 nM.

How did the IC50 turn out when `CCC(NC(=O)c1cncc2c1cnn2-c1ccc(F)cc1)C1CCCN(S(C)(=O)=O)C1` (centres unmarked) [1-(4-Fluorophenyl)-1H-pyrazolo[3,4-c]pyridine-4-carboxylic acid [1-(1-methanesulfonyl-piperidin-3-yl)-propyl]-amide] was run?
Its IC50 is 2 nM.

`CC[C@H](NC(=O)c1cncc2c1cnn2-c1ccc(F)cc1)c1cccc(S(C)(=O)=O)c1` [1-(4-Fluorophenyl)-1H-pyrazolo[3,4-c]pyridine-4-carboxylic acid [(S)-1-(3-methanesulfonyl-phenyl)-propyl]-amide] was tested. Which IC50 did it give?
The IC50 was 0.3 nM.

With `CSc1ncc([C@H](C)NC(=O)c2cncc3c2cnn3-c2ccc(F)cc2)o1` [1-(4-Fluorophenyl)-1H-pyrazolo[3,4-c]pyridine-4-carboxylic acid [(S)-1-(2-methylsulfanyl-oxazol-5-yl)-ethyl]-amide] as the compound, how does the IC50 read?
Its IC50 is 6 nM.

For `COc1cc([C@H](C)NC(=O)c2cncc3c2cnn3-c2ccc(F)cc2)cc(S(C)(=O)=O)n1` [1-(4-Fluorophenyl)-1H-pyrazolo[3,4-c]pyridine-4-carboxylic acid [(S)-1-(2-methanesulfonyl-6-methoxy-pyridin-4-yl)-ethyl]-amide], which IC50 is on record?
The IC50 was 0.4 nM.

For `C[C@H](NC(=O)c1cncc2c1cnn2-c1ccc(F)cc1)c1cccc(Cl)c1` [1-(4-Fluorophenyl)-1H-pyrazolo[3,4-c]pyridine-4-carboxylic acid [(S)-1-(3-chlorophenyl)-ethyl]-amide], which IC50 is on record?
The IC50 was 5 nM.

`CC(C)(O)CNc1cc(CNC(=O)c2cncc3c2cnn3-c2ccc(F)cc2)cc(S(C)(=O)=O)n1` [1-(4-Fluorophenyl)-1H-pyrazolo[3,4-c]pyridine-4-carboxylic acid [2-(2-hydroxy-2-methyl-propylamino)-6-methanesulfonyl-pyridin-4-ylmethyl]-amide] was tested. Which IC50 did it give?
Its IC50 is 0.7 nM.

How did the IC50 turn out when `CC[C@H](NC(=O)c1cncc2c1cnn2-c1ccc(F)cc1)c1ccc(S(C)(=O)=O)c(OC)c1` [1-(4-Fluorophenyl)-1H-pyrazolo[3,4-c]pyridine-4-carboxylic acid [(S)-1-(4-methanesulfonyl-3-methoxy-phenyl)-propyl]-amide] was run?
The IC50 was 0.2 nM.

For `CS(=O)(=O)c1csc(CNC(=O)c2cncc3c2cnn3-c2ccc(F)cc2)c1` [1-(4-Fluorophenyl)-1H-pyrazolo[3,4-c]pyridine-4-carboxylic acid (4-methanesulfonyl-thiophen-2-ylmethyl)-amide], which IC50 is on record?
Its IC50 is 5 nM.

How did the IC50 turn out when `CS(=O)(=O)c1ncc(CNC(=O)c2cncc3c2cnn3-c2ccc(F)cc2)s1` [1-(4-Fluorophenyl)-1H-pyrazolo[3,4-c]pyridine-4-carboxylic acid (2-methanesulfonyl-thiazol-5-ylmethyl)-amide] was run?
Its IC50 is 17 nM.
